The source of these data is patent US20260200920A1, “SUBSTITUTED AMINOPYRIDINE COMPOUNDS FOR USE AS AKT1 INHIBITORS” (Atavistik Bio, Inc., priority 2023, published 2026).

For test [1], the target named is T1, human recombinant kinase full-length wildtype AKT1 (Homo sapiens, UniProt P31749).
T1 construct: Purified human recombinant kinase full-length wildtype AKT1 was expressed in insect cells; made in house; host or cells: insect cells
Briefly: AKT1 kinase assay (wildtype, TR-FRET, Lance). The format is biochemical. The note with it: 0.6 nM wildtype AKT1, 50 nM Ulight-CREBtide, either 50 μM ATP or 2 mM ATP, 60 min at RT. An outline of the steps: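 TR-FRET 665/620 ratio quantified phospho-CREBtide formed by PDPK1-activated full-length human AKT1 (0.6 nM, insect-cell-derived) over 60 min at RT with 50 nM ULight-CREBtide and either 50 μM or 2 mM ATP. Compounds were preincubated 15 min with enzyme; IC50 came from 4-parameter fits of 10-point duplicates.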

Test [2] concerns the target T2, human recombinant kinase full-length AKT1 E17K (Homo sapiens, UniProt P31749, E17K).
T2 construct: Purified human recombinant kinase full-length AKT1 E17K was expressed in insect cells; made in house; host or cells: insect cells
Briefly: AKT1 E17K kinase assay (TR-FRET, Lance). It counts as biochemical. The note with it: 0.6 nM AKT1 E17K, 50 nM Ulight-CREBtide, either 50 μM ATP or 2 mM ATP, 60 min at RT. The method in brief: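 IC50 came from a 10-point, 4-parameter fit of the 665/620 TR-FRET ratio read with Eu-anti-phospho-CREB (Ser133). Reaction at RT for 60 min after 15 min compound preincubation, using 0.6 nM PDPK1-activated full-length AKT1 E17K (insect-cell), 50 nM Ulight-CREBtide, ATP at 50 μM or 2 mM, HEPES pH 7.5, 1% DMSO.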
In general terms: TR-FRET usually uses a lanthanide donor and a delayed reading to cut background.

T1 sequence (P31749 whole entry): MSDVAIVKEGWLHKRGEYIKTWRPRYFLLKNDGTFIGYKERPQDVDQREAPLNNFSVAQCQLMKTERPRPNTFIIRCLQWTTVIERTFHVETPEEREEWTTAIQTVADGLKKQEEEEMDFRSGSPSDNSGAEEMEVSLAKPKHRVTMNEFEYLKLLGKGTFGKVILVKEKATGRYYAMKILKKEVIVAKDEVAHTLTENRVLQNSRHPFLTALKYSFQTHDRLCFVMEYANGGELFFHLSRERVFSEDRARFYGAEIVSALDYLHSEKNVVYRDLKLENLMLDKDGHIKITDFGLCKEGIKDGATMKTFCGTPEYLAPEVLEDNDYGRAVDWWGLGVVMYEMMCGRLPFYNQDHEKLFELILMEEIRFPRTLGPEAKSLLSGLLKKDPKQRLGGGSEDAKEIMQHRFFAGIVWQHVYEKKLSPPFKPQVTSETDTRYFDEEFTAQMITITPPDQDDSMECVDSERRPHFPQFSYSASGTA
T2 sequence (P31749 whole entry E17K): as the sequence (P31749 whole entry) above, with E17K counted along it

In the case of `CN(Cc1ccc(-n2c(-c3cccnc3N)nc3ccc(-c4ccccc4)nc32)cc1)[C@@H]1CC[C@@H](C(=O)O)C1` [Compound I-170], the IC50 (as a rule, the concentration at which inhibition is half-maximal) in test [1] is < 20000 nM; in test [2], < 500 nM.

As to `Nc1ncccc1-c1nc2ccc(-c3ccccc3)nc2n1-c1ccc(C2CN(C[C@H]3CC4CC3CC4C(=O)O)C2)cc1` (stereo partly drawn) [Compound I-149], the IC50 in test [1] was < 20000 nM; in test [2], < 500 nM.

`CC1(C)C[C@@H](CN2CC(c3ccc(-n4c(-c5cccnc5N)nc5ccc(-c6ccccc6)nc54)cc3)C2)CC[C@H]1C(=O)O` [Compound I-69, (1R,4S)-4-((3-(4-(2-(2-aminopyridin-3-yl)-5-phenyl-3H-imidazo[4,5-b]pyridin-3-yl)phenyl)azetidin-1-yl)methyl)-2,2-dimethylcyclohexane-1-carboxylic acid]: the figures for the concentration for half-maximal inhibition (IC50) in test [1] and in test [2] were < 20000 nM and < 500 nM, respectively.

For the compound `CC(C)(N[C@@H]1CC[C@@H](C(=O)O)C1)c1ccc(-n2c(-c3cccnc3N)nc3ccc(-c4ccccc4)nc32)cc1` [Compound I-87, (1R,3R)-3-((2-(4-(2-(2-aminopyridin-3-yl)-5-phenyl-3H-imidazo[4,5-b]pyridin-3-yl)phenyl)propan-2-yl)amino)cyclopentane-1-carboxylic acid], the figures for the IC50 in test [1] and in test [2] were < 20000 nM and ≥ 2000 nM, respectively.

For `Nc1ncccc1-c1nc2ccc(-c3ccccc3)nc2n1-c1ccc(NC2CCC(C(=O)O)C2)nc1` (stereo not drawn) [Compound I-13, 3-((5-(2-(2-aminopyridin-3-yl)-5-phenyl-3H-imidazo[4,5-b]pyridin-3-yl)pyridin-2-yl)amino)cyclopentane-1-carboxylic acid], the IC50 in test [1] was < 20000 nM; in test [2], ≥ 2000 nM.

As to `CC(c1ccc(-n2c(-c3cccnc3N)nc3ccc(-c4ccccc4)nc32)cc1)N1CCC(C(=O)O)C1` (stereo not drawn) [Compound I-84, 1-(1-(4-(2-(2-aminopyridin-3-yl)-5-phenyl-3H-imidazo[4,5-b]pyridin-3-yl)phenyl)ethyl)pyrrolidine-3-carboxylic acid], the figures for the concentration for half-maximal inhibition (IC50) in test [1] and in test [2] were < 20000 nM and ≥ 2000 nM, respectively.

For `Nc1ncccc1-c1nc2ccc(-c3ccccc3)nc2n1-c1ccc(C2CN(CC3CCC(C(=O)O)CC3)C2)nc1` (stereo not drawn) [Compound I-64, 4-((3-(5-(2-(2-aminopyridin-3-yl)-5-phenyl-3H-imidazo[4,5-b]pyridin-3-yl)pyridin-2-yl)azetidin-1-yl)methyl)cyclohexane-1-carboxylic acid], the values for the 50% inhibitory concentration (IC50) in test [1] and in test [2] were < 20000 nM and ≥ 2000 nM, respectively.

Turning to `Cc1cc(CN(C)[C@H]2CC[C@@H](C(=O)O)CC2)ccc1-n1c(-c2cccnc2N)nc2ccc(-c3ccccc3)nc21` [Compound I-179], the values for the IC50 in test [1] and in test [2] were < 20000 nM and 500 to 2000 nM, respectively.

In the case of `CC(C(=O)O)C1CCN(c2ccc(-n3c(-c4cccnc4N)nc4ccc(-c5ccccc5)nc43)cn2)C1` (stereo not drawn) [Compound I-26, 2-(1-(5-(2-(2-aminopyridin-3-yl)-5-phenyl-3H-imidazo[4,5-b]pyridin-3-yl)pyridin-2-yl)pyrrolidin-3-yl)propanoic acid], the values for the IC50 in test [1] and in test [2] were < 20000 nM and ≥ 2000 nM, respectively.

Regarding `Cc1cc(CN2CCC(C(C)(C)C(=O)O)C2)ccc1-n1c(-c2cccnc2N)nc2ccc(-c3ccccc3)nc21` (stereo not drawn) [Compound I-180], the values for the IC50 in test [1] and in test [2] were < 20000 nM and ≥ 2000 nM, respectively.

For `Nc1ncccc1-c1nc2ccc(-c3ccccc3)nc2n1-c1ccc(NC(=O)N2CCC(C(=O)O)C2)cc1` (stereo not drawn) [Compound I-52, 1-[[4-[2-(2-amino-3-pyridyl)-5-phenyl-imidazo[4,5-b]pyridin-3-yl]phenyl]carbamoyl]pyrrolidine-3-carboxylic acid], the IC50 in test [1] was < 20000 nM; in test [2] it was < 500 nM.

For the compound `Nc1ncccc1-c1nc2ccc(-c3ccccc3)nc2n1-c1ccc(N[C@H]2CC[C@H](C(=O)O)CC2)nc1` (single isomer, unassigned) [Compound I-14, (1r,4r)-4-((5-(2-(2-aminopyridin-3-yl)-5-phenyl-3H-imidazo[4,5-b]pyridin-3-yl)pyridin-2-yl)amino)cyclohexane-1-carboxylic acid], the IC50 is < 20000 nM in test [1] and ≥ 2000 nM in test [2].

Regarding `Cc1nc(-n2c(-c3cccnc3N)nc3ccc(-c4ccccn4)cc32)ccc1NC(=O)[C@H]1CC[C@H](C(=O)O)CC1` [Compound I-133, (1r,4r)-4-((6-(2-(2-aminopyridin-3-yl)-6-(pyridin-2-yl)-1H-benzo[d]imidazol-1-yl)-2-methylpyridin-3-yl)carbamoyl)cyclohexane-1-carboxylic acid], the figures for the IC50 in test [1] and in test [2] were < 20000 nM and ≥ 2000 nM, respectively.

Consider `Nc1ncccc1-c1nc2ccc(-c3ccccc3F)nc2n1-c1ccc([C@@H]2CCN(C[C@H]3CC[C@H](C(=O)O)CC3)C2)cc1` (single isomer, unassigned) [Compound I-231], for which the IC50 was < 20000 nM in test [1] and < 500 nM in test [2].

On to `CCN(Cc1ccc(-n2c(-c3cccnc3N)nc3ccc(-c4ccccc4)nc32)c(F)c1)[C@H]1CC[C@@H](C(=O)O)CC1` [Compound I-162], for which the IC50 in test [1] was < 20000 nM; in test [2] it was ≥ 2000 nM.

In the case of `CC1(C)C[C@H](CN2CCC(c3ccc(-n4c(-c5cccnc5N)nc5ccc(-c6ccccc6)nc54)cc3)CC2)CC(C)(C)[C@@H]1C(=O)O` [Compound I-197], the results for the IC50 in test [1] and in test [2] were < 20000 nM and ≥ 2000 nM, respectively.

Turning to `Cc1nc(NC(=O)[C@H]2CC[C@H](C(=O)O)CC2)ccc1-n1c(-c2cccnc2N)nc2ccc(-c3cccc(F)c3F)nc21` [Compound I-219], the IC50 in test [1] is < 20000 nM; in test [2], 500 to 2000 nM.

As for `Cc1cc2nc(-c3cccnc3N)n(-c3ccc(C4CN(C[C@H]5CC[C@@H](C(=O)O)CC5)C4)cc3)c2nc1-c1ccccc1` [Compound I-234, Cis-4-((3-(4-(2-(2-aminopyridin-3-yl)-6-methyl-5-phenyl-3H-imidazo[4,5-b]pyridin-3-yl)phenyl)azetidin-1-yl)methyl)cyclohexane-1-carboxylic acid], the values for the IC50 in test [1] and in test [2] were < 20000 nM and < 500 nM, respectively.

Take `CC1(C)C[C@@H](C(=O)O)CC[C@@H]1CN1CC(c2ccc(-n3c(-c4cccnc4N)nc4ccc(-c5ccccc5)nc43)cc2)C1` (stereo in doubt) [Compound I-145]: the IC50 in test [1] was < 20000 nM; in test [2], 500 to 2000 nM.

For `Cc1nc(NC(=O)[C@H]2CC[C@H](C(=O)O)CC2)ccc1-n1c(-c2cccnc2N)nc2ccc(-c3ccccc3)cc21` [Compound I-127, (1r,4r)-4-((5-(2-(2-aminopyridin-3-yl)-6-phenyl-1H-benzo[d]imidazol-1-yl)-6-methylpyridin-2-yl)carbamoyl)cyclohexane-1-carboxylic acid], the results for the concentration for half-maximal inhibition (IC50) in test [1] and in test [2] were < 20000 nM and 500 to 2000 nM, respectively.

Regarding `CC1(c2ccc(-n3c(-c4cccnc4N)nc4ccc(-c5ccccc5)nc43)cc2)CN(CC2CC3(C2)CC(C(=O)O)C3)C1` (stereo not drawn) [Compound I-155], the IC50 in test [1] is < 20000 nM; in test [2], < 500 nM.

As to `Nc1ncccc1-c1nc2cc(-c3ccccc3)cnc2n1-c1ccc(C2CN(C[C@H]3CC[C@H](C(=O)O)CC3)C2)cc1` [Compound I-65, (1r,4r)-4-((3-(4-(2-(2-aminopyridin-3-yl)-6-phenyl-3H-imidazo[4,5-b]pyridin-3-yl)phenyl)azetidin-1-yl)methyl)cyclohexane-1-carboxylic acid], the values for the IC50 in test [1] and in test [2] were < 20000 nM and ≥ 2000 nM, respectively.

Consider `C[C@@H]([C@H]1CC[C@H](C(=O)O)CC1)N1CC(c2ccc(-n3c(-c4cccnc4N)nc4ccc(-c5ccccc5)nc43)cc2)C1` [Compound I-60, (1S,4r)-4-((S)-1-(3-(4-(2-(2-aminopyridin-3-yl)-5-phenyl-3H-imidazo[4,5-b]pyridin-3-yl)phenyl)azetidin-1-yl)ethyl)cyclohexane-1-carboxylic acid], for which the IC50 in test [1] is < 20000 nM; in test [2], 500 to 2000 nM.

As to `CN(Cc1ccc(-n2c(-c3cccnc3N)nc3ccc(-c4ccccc4)nc32)c(F)c1)[C@H]1CC[C@@H](C(=O)O)CC1` [Compound I-165], the IC50 in test [1] was < 20000 nM; in test [2] it was < 500 nM.

On to `CC1(C)CC(C(=O)O)CCC1CN1CCC(c2ccc(-n3c(-c4cccnc4N)nc4ccc(-c5ccccc5)nc43)cc2)CC1` (stereo not drawn) [Compound I-194], for which the IC50 in test [1] was < 20000 nM; in test [2], 500 to 2000 nM.

For the compound `Nc1ncccc1-c1nc2ccc(-c3ccccc3)nc2n1-c1ccc(NC(=O)C2CC3(CC(C(=O)O)C3)C2)cc1` (stereo not drawn) [Compound I-46, 6-[[4-[2-(2-amino-3-pyridyl)-5-phenyl-imidazo[4,5-b]pyridin-3-yl]phenyl]carbamoyl]spiro[3.3]heptane-2-carboxylic acid], the figures for the IC50 in test [1] and in test [2] were < 20000 nM and < 500 nM, respectively.

Turning to `Nc1ncccc1-c1nc2ccc(-c3ccccc3)nc2n1-c1ccc(CN2CCC(CC(=O)O)C2)cc1` (stereo not drawn) [Compound I-94, 2-(1-(4-(2-(2-aminopyridin-3-yl)-5-phenyl-3H-imidazo[4,5-b]pyridin-3-yl)benzyl)pyrrolidin-3-yl)acetic acid], the IC50 in test [1] was < 20000 nM; in test [2] it was < 500 nM.
